From US5972946A, “Acetamide derivative, process for preparing the same, and a pharmaceutical composition containing the same” (Dainippon Pharmaceutical Co., Ltd., priority 1995, dated 1999)

Assays:
[1] = known from literature; cited from earlier work
Bacillus subtilis = conditions: Pharmazie, 43, 537-538 (1988); cited from earlier work
[2] = Collagen-induced arthritis inhibitory test 2; format: in vivo, mouse (DBA/1j, female); conditions: for suppression of arthritis as compared with control: Example 165: at least until 34th day; for effect on collagen-induced arthritis inhibitory test (conclusion): experiment 5, 10 mg/kg oral
Procedure: Experiment 5: Collagen-induced arthritis inhibitory test 2
Collagen-induced arthritis inhibitory test was carried out according to Kakimoto, K. et al. (cf. above reference of Kakimoto, K. et al.) with slight modification. Type II collagen from bovine joints (product of the Collagen Research Center, Japan) was emulsified in complete Freund's adjuvant (product of DIFCO Lab., U.S.A.). Female mice of DBA/1j strain (product of Nippon Charles River, Japan) were immunized by injection at the base of the tail with 150 μg of the emulsified collagen. After twenty one days from the immunization, arthritis was induced by a booster immunization of 150 μg of the emulsified collagen prepared in the same manner as above at the base of the tail again. Test compounds were administered orally at a dose of 10 mg/kg on 5 consecutive days in a week for 8 weeks, beginning from the day before the immunization. Mice were monitored visually for arthritis once a week beginning from the day of the booster immunization. The severity of arthritis was estimated by the sum of the scores of all 4 paws.

[3] = target: peripheral (ω3) benzodiazepine (BZ) receptor (Rattus norvegicus, UniProt P16257); assay: BZω3 (peripheral-type) benzodiazepine receptor binding assay
[4] = Collagen-induced arthritis inhibitory test 1; format: in vivo, mouse (DBA/1j, male)
Procedure: Experiment 4: Collagen-induced arthritis inhibitory test 1
Collagen-induced arthritis inhibitory test is an experimental model for rheumatoid arthritis reported by Trethan, D. E. et al. [cf. […] J. Immunol., 140, 78-83 (1988)].
Collagen-induced arthritis inhibitory test was carried out according to Kakimoto, K. et al. (cf. above reference of Kakimoto, K. et al.) with slight modification. Solubilized bovine cartilage type II collagen (product of Elastine Products, U.S.A.) was emulsified in complete Freund's adjuvant (product of DIFCO Lab., U.S.A.). Male mice of DBA/1j strain (6 week-old; product of Nippon Charles River, Japan) were immunized by injection at the base of the tail with 150 μg of the emulsified collagen. After twenty one days from the immunization, arthritis was induced by a booster immunization of 150 μg of the emulsified collagen prepared in the same manner as above at the base of the tail again. A test compound was orally administered daily at the dose of 10 mg/kg from the first immunization. Mice were observed daily 5 days after the booster immunization for the onset of arthritis, and an arthritic score was derived by grading the severity of involvement of each paw five scales (0-4) according to the method of Wood, F. D. et al. [cf. Int. Arch. Allergy Appl. The severity of arthritis was estimated by the sum of the scores of all 4 paws, and the onset of the disease was determined when score 1 was observed.

[5] = Light and dark box test (anti-anxiety effect); format: in vivo, mouse (Std-ddY, male); conditions: Mus musculus, 0.5 h; oral, 30 min before test; mice; p<0.05 vs vehicle; read-out: Anti-anxiety effect MED (minimum effective dose)
Source text: Experiment 2: Light and dark box test (anti-anxiety effect)
Anti-anxiety effect of test compounds was examined in a box with light and dark compartments according to the method of Crawley, J. and Goodwin, F. K. [cf. Pharmacol. Biochem. Behav. 13, 167-170 (1980)] with slight modification.
Light and dark box test is a useful, simple and handy method for behaviorally and pharmacologically examining anti-anxiety effect of the drugs, by utilizing the habit of rodents such as mice and rats, etc. which prefer to stay in a dark place, and regarding as positive drug effect the increase of the relative stay of the animals in the light compartment which is an uncomfortable place for the animals.
Light and dark box test was carried out using the test box device (35×15×17 cm) which comprises: a light compartment (20×15×17 cm) consisting of transparent acrylic plates and highly illuminated by an incandescent lamp (1,700 lux); a dark compartment (15×15×17 cm) being made of black acrylic plates connected to the light compartment; and at the boundary of compartments, an opening (4.4×5 cm) in which mice can go through freely between two compartments.
Male mice of Std-ddY strain weighing 25-30 g were used in a group of 10. Each trial was started by placing a mouse in the center of the light compartment 30 minutes after oral administration of a test compound, and the time spent by the mouse in the light compartment during a 5 minute observation period was measured, and the rate of the stay of mice in the light compartment to the whole time spent in the experiment was calculated. The increasing rate of the relative stay of the test compound to that of the vehicle control group was yielded, based on the rate of the stay of mice in the light compartment.
The anti-anxiety effect of the test compound was represented by the minimum effectivetive dose (MED) at which the increasing rate of the relative stay was regarded statistically as significant (Williams-Wilcoxon's test, p<0.05).

| SMILES | effect in isoniazid-induced clonic convulsion test (known drugs) [1] | effect on collagen-induced arthritis inhibitory test (conclusion) [2] | IC50 [3] | further results |
| --- | --- | --- | --- | --- |
| CN1C(=O)CN=C(c2ccccc2)c2cc(Cl)ccc21 [diazepam] | positive effect | – | – | – |
| CC(=O)c1c(C)nc(-c2ccccc2)nc1SCC(=O)Nc1ccc(Cl)cc1 [2-(5-acetyl-6-methyl-2-phenyl-4-pyrimidinylthio)-N-(4-chlorophenyl)acetamide] | – | – | – | antibacterial activity against Bacillus subtilis (Bacillus subtilis): shows antibacterial activity against Bacillus subtilis |
| CCN(C(=O)COc1nc(-c2ccc(N)cc2)nc(C)c1C)c1ccccc1 [Example 165, 2-[2-(4-aminophenyl)-5,6-dimethyl-4-pyrimidinyloxy]-N-ethyl-N-phenylacetamide] | – | potent effect | 5.07 nM | suppression of arthritis as compared with control ([2]; 10 mg/kg oral, 5 days a week): markedly suppressed the arthritis as compared with control group |
| CCCN(C(=O)COc1nc(-c2ccccc2)nc(C)c1C)c1ccccc1 [Example 178, 2-(5,6-Dimethyl-2-phenyl-4-pyrimidinyloxy)-N-phenyl-N-propylacetamide] | – | less potent effect | 0.57 nM | suppression of arthritis as compared with control ([2]; 10 mg/kg oral, 5 days a week): the arthritis was suppressed as compared with the control |
| CCCN(CCC)C(=O)COc1nc(-c2ccccc2)nc(C)c1C [Example 136, 2-(5,6-dimethyl-2-phenyl-4-pyrimidinyloxy)-N,N-dipropylacetamide] | – | – | 0.34 nM | severity of arthritis (arthritic score) versus control group ([4]; 10 mg/kg oral daily): much lower than the control group; onset of arthritis delayed until (days after the booster immunization) ([4]; 10 mg/kg oral daily, control onset on 28th day): 34 days; effect on collagen-induced arthritis inhibitory test (conclusion) ([4]; experiment 4, 10 mg/kg oral): potent effect; minimal effective dose [5]: 0.3 mg/kg |
| CCCN(CCC)C(=O)CNc1nc(-c2ccc(C(F)(F)F)cc2)nc(C)c1C [Example 6, 2-[5,6-Dimethyl-2-(4-trifluoromethylphenyl)-4-pyrimidinylamino]-N,N-dipropylacetamide] | – | potent effect | 0.23 nM | minimal effective dose [5]: 0.3 mg/kg; onset of arthritis delayed until (days after the booster immunization) ([2]; 10 mg/kg oral, 5 consecutive days a week for 8 weeks): 21 days; severity of arthritis versus control group ([2]; 10 mg/kg oral, 5 days a week, at least until day 34, last day of the experiment): much lower than the control group |
| C[C@]12CC[C@@H](O)C[C@@H]1CC[C@@H]1[C@@H]2CC[C@]2(C)[C@@H](C(=O)CO)CC[C@@H]12 [THDOC, allotetrahydrodeoxycorticosterone] | positive effect | – | – | – |
| CC(=O)[C@H]1CC[C@H]2[C@@H]3CC[C@H]4C[C@H](O)CC[C@]4(C)[C@H]3CC[C@]12C [allopregnanolone] | positive effect | – | – | – |
